Key:
PC-12 [1] = test: Nitric oxide radical scavenging activity in PC12 cells by survival assay; type: functional, cell-based, Homo sapiens; settings: Rattus norvegicus
PC-12 [2] = test: Hydrogen peroxide radical scavenging activity in PC12 cell by survival assay; type: functional, cell-based, Homo sapiens; settings: Rattus norvegicus
PC-12 [3] = test: Hydroxyl radical scavenging activity in PC12 cell by survival assay; type: functional, cell-based, Homo sapiens; settings: Rattus norvegicus
[4] = Partition coefficient, log P of the compound; type: physicochemical; settings: octanol/water
[5] = Retention time, log K of the compound; type: ADME

| SMILES | EC50 (PC-12 [1]; read-out: EC50) | EC50 (PC-12 [1]; read-out: Log EC50 (converted)) | EC50 (PC-12 [2]; read-out: EC50) | EC50 (PC-12 [2]; read-out: Log EC50 (converted)) | EC50 (PC-12 [3]; read-out: EC50) | EC50 (PC-12 [3]; read-out: Log EC50 (converted)) | logP [4] | log K [5] |
| --- | --- | --- | --- | --- | --- | --- | --- | --- |
| COc1ccc(C2=[N+]([O-])C(C)(C)C(C)(C)N2[O])cc1O | 27.5 µM | 27.5 µM | 40.1 µM | 39.8 µM | 54.1 µM | 53.7 µM | 0.918 | 0.534 |
| CC1(C)N([O])C(c2ccc([N+](=O)[O-])cc2)=[N+]([O-])C1(C)C | 115 µM | 115 µM | 108 µM | 107 µM | 167 µM | 166 µM | 1.68 | 1.245 |
| COc1ccc(C2=[N+]([O-])C(C)(C)C(C)(C)N2[O])cc1 | 30.9 µM | 30.9 µM | 42.9 µM | 42.7 µM | 59.3 µM | 58.9 µM | 1.62 | 1.101 |
| CC1(C)N([O])C(c2ccccc2O)=[N+]([O-])C1(C)C | 44.7 µM | 44.7 µM | 52.8 µM | 52.5 µM | 55.3 µM | 55 µM | 1.17 | 0.729 |
| CC1(C)N([O])C(c2ccccc2[N+](=O)[O-])=[N+]([O-])C1(C)C | 47.9 µM | 47.9 µM | 60.7 µM | 60.3 µM | 74.6 µM | 74.1 µM | 0.909 | 0.598 |
| CC1(C)N([O])C(c2ccc3c(c2)OCO3)=[N+]([O-])C1(C)C | 19.5 µM | 19.5 µM | 29.7 µM | 29.5 µM | 47.1 µM | 46.8 µM | 1.51 | 1.039 |
| COc1cc(C2=[N+]([O-])C(C)(C)C(C)(C)N2[O])ccc1O | 25.7 µM | 25.7 µM | 32.6 µM | 32.4 µM | 42.9 µM | 42.7 µM | 1.14 | 0.558 |
| CN(C)c1ccc(C2=[N+]([O-])C(C)(C)C(C)(C)N2[O])cc1 | 9.12 µM | 9.12 µM | 29 µM | 28.8 µM | 31.1 µM | 30.9 µM | 2.02 | 1.328 |
| CC1(C)N([O])C(c2cccc(O)c2)=[N+]([O-])C1(C)C | 61.7 µM | 61.7 µM | 57.9 µM | 57.5 µM | 69.6 µM | 69.2 µM | 1.14 | 0.546 |
| COc1ccc(C2=[N+]([O-])C(C)(C)C(C)(C)N2[O])cc1OC | 8.32 µM | 8.32 µM | 30.4 µM | 30.2 µM | 29.7 µM | 29.5 µM | 1.15 | 0.905 |
| CC1(C)N([O])C(c2ccc(OCC(=O)O)cc2)=[N+]([O-])C1(C)C | 91.2 µM | 91.2 µM | 74.6 µM | 74.1 µM | 101 µM | 100 µM | -0.518 | -0.372 |
| CC1(C)N([O])C(c2ccc(Cl)cc2Cl)=[N+]([O-])C1(C)C | 42.8 µM | 42.7 µM | 65 µM | 64.6 µM | 78.1 µM | 77.6 µM | 1.93 | 1.347 |
| CC1(C)N([O])C(c2ccccc2F)=[N+]([O-])C1(C)C | 44.7 µM | 44.7 µM | 76.4 µM | 75.9 µM | 85.7 µM | 85.1 µM | 0.822 | 0.577 |
| CC1(C)N([O])C(c2cccc([N+](=O)[O-])c2)=[N+]([O-])C1(C)C | 87.1 µM | 87.1 µM | 62.1 µM | 61.7 µM | 63.5 µM | 63.1 µM | 1.64 | 1.157 |
| CC1(C)N([O])C(c2ccc(Br)cc2)=[N+]([O-])C1(C)C | 46.8 µM | 46.8 µM | 55.3 µM | 55 µM | 60.7 µM | 60.3 µM | 2.46 | 1.713 |
| COc1ccc(C2=[N+]([O-])C(C)(C)C(C)(C)N2[O])c(OC)c1 | 9.33 µM | 9.33 µM | 25.3 µM | 25.1 µM | 27.7 µM | 27.5 µM | 0.77 | 0.62 |
| CC1(C)N([O])C(c2ccccc2)=[N+]([O-])C1(C)C | 67.6 µM | 67.6 µM | 51.6 µM | 51.3 µM | 66.5 µM | 66.1 µM | 1.36 | 0.918 |
| CC1(C)N([O])C(c2ccc(O)cc2)=[N+]([O-])C1(C)C | 39.8 µM | 39.8 µM | 48.2 µM | 47.9 µM | 56 µM | 56.2 µM | 0.619 | 0.483 |
| CC1(C)N([O])C(c2cccnc2)=[N+]([O-])C1(C)C | – | – | – | – | – | – | 0.512 | 0.337 |
| CC1(C)N([O])C(c2ccco2)=[N+]([O-])C1(C)C | – | – | – | – | – | – | 0.615 | 0.405 |
| CC1(C)N([O])C(c2ccc(Cl)cc2)=[N+]([O-])C1(C)C | 63.1 µM | 63.1 µM | 58.9 µM | 58.9 µM | 74.6 µM | 74.1 µM | 2.33 | 1.6 |
| Cc1ccc(C2=[N+]([O-])C(C)(C)C(C)(C)N2[O])cc1 | 33.1 µM | 33.1 µM | 38.3 µM | 38 µM | 65 µM | 64.6 µM | 1.9 | 1.309 |

Reference: ChEMBL document CHEMBL1147197, “Studies on logP, retention time and QSAR of 2-substituted phenylnitronyl nitroxides as free radical scavengers” (Eur J Med Chem, 2007)
